Patent publication US20030104024A1, “Urea and nitrogen based compounds as feeding stimulants/aggregants and masking agents of unpalatable chemicals for subterranean termites” (priority 2000, published 2003)

Legend:
[1] = test system: Formosan subterranean termites; assay: two choice feeding experiment: blank bait matrix vs. matrix with neutral red and urea; type: in vivo, Coptotermes formosanus; settings: urea 0-1280 ppm added to matrix with 1,000 ppm neutral red; groups of 300 termites; 30 d; FIG. 1
Method: (§1) The basic formulation of the matrix was prepared the same day that the experiment was set up, as reported by Rojas et al. (U.S. patent application Ser. Nos. 09/294,499 and 09/625,940, ibid). The colorant used was neutral red (Product number 72210, Fluka Chemical Corp., Milwaukee, Wis.) at 1000 ppm.
Under a laminar flow hood, the sterile cellulose was weighed using a Oahus portable plus scale (Fisher Scientific, Pittsburgh, Pa.) into a sterile 600 ml glass beaker. The colorant was weighed using a Mettler Toledo balance (PB303, Fisher Scientific, Pittsburgh, Pa.) and added to the pre-weighed cellulose. The cellulose with the colorant were homogenized using a sterile stainless steel spatula.
The sterile liquid mixture was measured into a 50 ml sterile screw cap conical tube (Product number 62.547.004 PP, Sarstedt, Inc., Newton, N.C.) and the urea was added at each of the following doses: 0, 10, 20, 40, 80, 160, 320, 640, and 1280 ppm; then it was added to the colored cellulose to a 7:3 ratio, (liquid-urea:colored-cellulose) and mixed to homogenize. […]
One treatment dish and one control dish were placed in the center of the top dish, taking care that the holes were facing each other and at least 1 cm apart. […] Matrix consumption was measured 30 d after by removing the left over bait matrix from the dishes and weighed it using a Sartorius balance (BP 211D, VWR Scientific, Atlanta, Ga.). […]

C. formosanus = settings: baits containing the termiticide; cited from earlier work
Formosan termite = assay: choice test of the colorant (feeding deterrence); type: in vivo, Coptotermes formosanus; settings: neutral red at 1000 ppm in bait matrix
Method: as §1

| SMILES | suppression of large colonies (C. formosanus) | further results |
| --- | --- | --- |
| NC(N)=O [urea] |  | effect of urea on feeding deterrence induced by the colorant (consumption difference, control minus colored matrix) [1]: significantly affected the feeding deterrence induced by the colorant |
| O=C(NC(=O)c1c(F)cccc1F)Nc1ccc(Cl)cc1 [diflubenzuron] | particularly effective |  |
| O=C(NC(=O)c1c(F)cccc1F)Nc1cc(Cl)c(OC(F)(F)C(F)F)c(Cl)c1 [hexaflumuron] | particularly effective |  |
| Cc1cc2nc3ccc(N(C)C)cc3nc2cc1N.Cl [neutral red] |  | feeding deterrence to the Formosan termite (Formosan termite): moderately deterrent |
